Where a name gives a salt, the structure may show the parent alone.

The nature of the first data set: Minimum amount of water/ethanol (1.5/4 v/v) required to dissolve the crude salt at boil (recrystallization). As to conditions: minimum water/ethanol (1.5/4 v/v) to dissolve crude product at boil; salt made by the method in column 2. It is filed as physicochemical. The text has this:
For comparative purposes, between and among organic salts prepared in this manner and for the purposes of subsequent Example 3, Table 3, crude reaction products were recrystalized from water/ethanol (1.5/4 v/v per gram of salt) using the minimum amount of solvent to effect dissolution at boil.
In the case of succinic acid, the organic acid was dispensed as a half-equivalent in order to generate mitonafide hemisuccinate. […] Crude product that was isolated from the hydrogenation reaction mixture was analyzed for purity by high pressure liquid chromatography (HPLC) according to the conditions described in Table 1 above. The crude product was recrystallized from water/ethanol (1.5/4 v/v) using the minimum amount of solvent required to dissolve the crude product at boil, which is shown in the last column of Table 3 for each salt. The recrystallized product was then analyzed for purity by HPLC.
The purities of the crude salts were assessed by HPLC according to the conditions described in Table 1 above. The crude salts were then recrystallized from the minimum amount of water/ethanol (1.5/4 v/v) using the minimum amount of solvent required to dissolve the crude product at boil, which is shown in the last column of Table 3 for each salt. The resulting purified salts were again assessed for purity.
The hydrochloride and methanesulfonic acid salts of amonafide were prepared according to U.S. Pat. No. 5,420,137. Exemplary procedures are as follows: 3 g of crude amonafide free base, obtained as described in the previous two paragraphs, above, were dissolved under reflux in 60 ml of virtually anhydrous ethanol. Subsequently 1 ml of 35% (1 equivalent, estimated) strength hydrochloric acid was added dropwise while shaking vigorously. After cooling, the resulting crystals were filtered off and washed with 10 ml of anhydrous ethanol. The methanesulfonic acid salt was obtained using the same procedure, but replacing hydrochloric acid with 0.8 ml of methanesulfonic acid. The purity was assessed by HPLC using the conditions described in Table 1. The isolated products were then recrystallized from water/ethanol (1.5/4 v/v) using the minimum amounts of solvent required to dissolve the crude product at boil, which are shown for each salt in Table 3. The resulting purified salts were again assessed for purity.
The hydrochloride salt of amonafide was obtained by the method of Zee-Chang et al., U.S. Pat. No. 4,614,820. Exemplary conditions are as follows: a mixture of the hydrochloride salt of N-(dimethylaminoethyl)-3-nitro-1,8-naphthalimide and 10% palladium-on-charcoal in water was hydrogenated at room temperature under 40 lbs/in^2 of hydrogen for one hour. […] To the mixture was added 3 ml of concentrated hydrochloric acid. It was then filtered and the filtrate was evaporated to dryness under reduced pressure. The residue was triturated with 30 ml of absolute ethanol and filtered. The resulting solid was then washed with ether and dried. The purity was assessed by HPLC using the conditions described in Table 1. The crude product was then recrystallized from water/ethanol (1.5/4 v/v) using the minimum amount of solvent (40 mL/g) required to dissolve the crude product at boil. The resulting purified salts were again assessed for purity.
Consider amonafide fumarate, for which the “Solvent” value amounted to 25 mL/g.

Turning to `CN(C)CCN1C(=O)c2cccc3cc(N)cc(c23)C1=O.O=C(O)CCCCC(=O)O` [Amonafide Adipate], the “Solvent” value was 25 mL/g.

As to `CN(C)CCN1C(=O)c2cccc3cc(N)cc(c23)C1=O.O=C(O)C(O)C(O)C(=O)O` [Amonafide L-tartrate], the “Solvent” value stood at 20 mL/g.

Take Amonafide succinate: the “Solvent” value is 20 mL/g.

Consider `CN(C)CCN1C(=O)c2cccc3cc(N)cc(c23)C1=O` [Amonafide HCl, Amonafide Monohydrochloride, reference compound], for which the “Solvent” value was 40 mL/g.

Regarding `CN(C)CCN1C(=O)c2cccc3cc(N)cc(c23)C1=O.O=C(O)CC(O)(CC(=O)O)C(=O)O` [Amonafide Citrate], the “Solvent” value worked out at 25 mL/g.

On to `CN(C)CCN1C(=O)c2cccc3cc(N)cc(c23)C1=O.O=C(O)CO` [Amonafide glycolate], for which the “Solvent” value was 12.5 mL/g.

With Amonafide pyruvate, the “Solvent” value turned out to be 20 mL/g.

Regarding `CN(C)CCN1C(=O)c2cccc3cc(N)cc(c23)C1=O.O=C(O)CCC(=O)C(=O)O` [Amonafide 2-oxoglutarate], the “Solvent” value amounted to 30 mL/g.

As to amonafide maleate, the “Solvent” value turned out to be 20 mL/g.

As for `CN(C)CCN1C(=O)c2cccc3cc(N)cc(c23)C1=O.O=C(O)CC(=O)O` [Amonafide malonate, amonafide malonate], the “Solvent” value turned out to be 20 mL/g.

As to “amonafide hemisuccinate [Amonafide hemi-succinate]”, the “Solvent” value is 15 mL/g.

Amonafide Aspartate: the “Solvent” value was 30 mL/g.

Turning to `CN(C)CCN1C(=O)c2cccc3cc(N)cc(c23)C1=O.CS(=O)(=O)O` [Amonafine methanesulfonate, reference compound], the “Solvent” value was 25 mL/g.

As to `CN(C)CCN1C(=O)c2cccc3cc(N)cc(c23)C1=O.O=C(O)c1ccccc1O` [Amonafide salicylate], the “Solvent” value came out at 35 mL/g.

The nature of another data set: Solubility assessment of amonafide salts (50, 100, 200 mg in 1 ml USP water or isotonic saline). It is filed as physicochemical. The conditions noted are these: 50 mg salt in 1 ml 0.9% sodium chloride (saline), 0 hours. The protocol: A number of organic acid amonafide salts of the present invention were tested for their solubility in aqueous medium and compared with the solubility of the corresponding hydrochloride and methansolufonic acid salts. […] Solutions were allowed to equilibrate for 1 hour, their dissolution status noted, and then refrigerated for an additional hour (at 2° C.). Thereafter, the samples were returned to room temperature and examined for precipitate formation and allowed to equilibrate for another hour until a final inspection for dissolution status.
As for amonafide fumarate, the “Dissolution Status” value is listed as “Insoluble”.

In the case of Amonafide succinate, the “Dissolution Status” value is given as “Insoluble”.

Take Amonafide pyruvate: the “Dissolution Status” value is recorded as “Soluble”.

As to amonafide maleate, the “Dissolution Status” value is on record as “Insoluble”.

Staying with this data set, now noted: 50 mg salt in 1 ml 0.9% sodium chloride (saline), 1 hours.
As for amonafide fumarate, the “Dissolution Status” value is “Insoluble”.

Take Amonafide succinate: the “Dissolution Status” value is given as “Insoluble”.

For Amonafide pyruvate, the “Dissolution Status” value was “Soluble”.

For the compound amonafide maleate, the “Dissolution Status” value is given as “Insoluble”.

Staying with this data set, now noted: 50 mg salt in 1 ml distilled water, 0 hours.
In the case of amonafide fumarate, the “Dissolution Status” value is listed as “Insoluble”.

Take Amonafide succinate: the “Dissolution Status” value is “Soluble”.

Turning to Amonafide pyruvate, the “Dissolution Status” value is listed as “Soluble”.

With amonafide maleate, the “Dissolution Status” value is recorded as “Insoluble”.

Still in this data set, the particulars now being: 50 mg salt in 1 ml distilled water, 1 hours.
For the compound amonafide fumarate, the “Dissolution Status” value was “Insoluble”.

On to Amonafide succinate, for which the “Dissolution Status” value is “Soluble”.

As for Amonafide pyruvate, the “Dissolution Status” value is given as “Soluble”.

With amonafide maleate, the “Dissolution Status” value is on record as “Insoluble”.

The data set is the same for the next values; noted with them: 100 mg salt in 1 ml 0.9% sodium chloride (saline), 0 hours.
Regarding Amonafide succinate, the “Dissolution Status” value is “Insoluble”.

Take Amonafide pyruvate: the “Dissolution Status” value was “Soluble”.

The data set is the same for the next values; noted with them: 100 mg salt in 1 ml 0.9% sodium chloride (saline), 1 hours.
On to Amonafide succinate, for which the “Dissolution Status” value is “Insoluble”.

Consider Amonafide pyruvate, for which the “Dissolution Status” value is “Soluble”.

Staying with this data set, now noted: 100 mg salt in 1 ml distilled water, 0 hours.
With Amonafide succinate, the “Dissolution Status” value is listed as “Insoluble”.

As for Amonafide pyruvate, the “Dissolution Status” value is reported as “Soluble”.

Staying with this data set, now noted: 100 mg salt in 1 ml distilled water, 1 hours.
With Amonafide succinate, the “Dissolution Status” value is on record as “Insoluble”.

As for Amonafide pyruvate, the “Dissolution Status” value is “Soluble”.

The data set is the same for the next values; noted with them: 200 mg salt in 1 ml 0.9% sodium chloride (saline), 0 hours.
Turning to Amonafide pyruvate, the “Dissolution Status” value is “Partially Soluble”.

Staying with this data set, now noted: 200 mg salt in 1 ml 0.9% sodium chloride (saline), 1 hours.
As to Amonafide pyruvate, the “Dissolution Status” value was “Partially Soluble”.

The data set is the same for the next values; noted with them: 200 mg salt in 1 ml distilled water, 0 hours.
Take Amonafide pyruvate: the “Dissolution Status” value is on record as “Soluble”.

The same data set, now with this note: 200 mg salt in 1 ml distilled water, 1 hours.
In the case of Amonafide pyruvate, the “Dissolution Status” value is reported as “Soluble”.

Staying with this data set, now noted: monohydrochloride prepared by salt exchange, 99.2% pure.
For `CN(C)CCN1C(=O)c2cccc3cc(N)cc(c23)C1=O` [Amonafide HCl, Amonafide Monohydrochloride, reference compound], the “solubility in the test panel of Tables 3 and 4” value is on record as “low solubility”.

The same data set, now with this note: text summary of Table 4.
With Amonafide pyruvate, the “solubility in distilled water and in saline at high concentration compared with the hydrochloride salt forms / organic salts” value is “more soluble”.
